Earlier results, collected in patent publication US20080009419A1, “GENETIC MODELS FOR STRATIFICATION OF CANCER RISK” (INTERGENETICS, INC., priority 2006, published 2008).
Like-named read-outs stand apart in the source and are kept apart here.

Key:
[1] = for range of peak plasma concentration: single oral dose of 20 mg tamoxifen
[2] = test system: rat mammary carcinoma induced by dimethylbenzanthracene (DMBA); details: rats
[3] = test system: invasive breast cancer incidence; details: postmenopausal women at high risk, by mouth once a day
estrogen receptors [4] = details: animal test systems
[5] = test system: incidence of breast cancer; details: large osteoporosis prevention and treatment study
estrogen receptors [6] = details: preclinical data
[7] = following chronic dosing
[8] = 10 mg tamoxifen twice daily for 3 months, patients
[9] = 20 mg tamoxifen once daily for 3 months

Row | SMILES | range of steady-state plasma concentration [1, 8] [ng/mL] | range of steady-state plasma concentration [1, 9] [ng/mL] | range of peak plasma concentration [1] [ng/mL] | reduction in invasive breast cancer incidence [3] [%] | further results
1 | CC/C(=C(\c1ccccc1)c1ccc(OCCNC)cc1)c1ccccc1 [N-desmethyl tamoxifen] | 148 to 654 | 152 to 706 | 10 to 20 |  | half-life suggested by time to steady state ([1]; human, in vivo): approximately 14 days
2 | CC/C(=C(\c1ccccc1)c1ccc(OCCN(C)C)cc1)c1ccccc1 [Tamoxifen] | 67 to 183 | 71 to 183 | 35 to 45 | 50 | terminal elimination half-life ([1]; biphasic decline in plasma): 120 to 170 h; DMBA-induced tumors in situ [2]: causes the regression
3 | CC/C(=C(\c1ccccc1)c1ccc(OCCN(C)C)cc1)c1ccccc1.O=C(O)CC(O)(CC(=O)O)C(=O)O [Tamoxifen citrate, (Z)2-[4-(1,2-diphenyl-1-butenyl)phenoxy]-N,N-dimethylethanamine 2-hydroxy-1,2,3-propanetricarboxylate (1:1)] |  |  |  |  | antiestrogenic properties (estrogen receptors [4]): potent antiestrogenic properties
4 | O=C(c1ccc(OCCN2CCCCC2)cc1)c1c(-c2ccc(O)cc2)sc2cc(O)ccc12 [Raloxifene] |  |  |  | 50 | incidence of breast cancer [5]: shown to reduce the incidence of breast cancer; estrogen antagonism in uterine and breast tissues (estrogen receptors [6]): estrogen antagonist; clearance [7]: 40 to 60 L/kg per hour
